Values quoted from earlier work in patent publication US8858963B1, “Tamper resistant composition comprising hydrocodone and acetaminophen for rapid onset and extended duration of analgesia” (Mallinckrodt LLC, priority 2011, dated 2014).

Test system: hepatic GSH
Conditions: Swiss mice

**Q.** Which results are given for CC(=O)Nc1ccc(O)cc1 [acetaminophen]?
**A.** onset of circulating hepatic GSH changes after administration (acetaminophen 100 mg/kg to 600 mg/kg): ≤ 15 min; time of minimum GSH level after injection (all dose groups (100 mg/kg to 600 mg/kg)): 2 h
